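Results reflect a 48-hour exposure of cells in 96-well plates to compound at five concentrations. The concentration for full growth arrest is given as TGI.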
Columns and labels:
Test in all cases: inhibition of tumour cell growth, NCI panel, 48 h
SN12C renal = system: SN12C renal
LOX IMVI melanoma = system: LOX IMVI melanoma
TK-10 renal = system: TK-10 renal
NCI-H226 lung = system: NCI-H226 lung
M14 melanoma = system: M14 melanoma
MDA-MB-231 breast = system: MDA-MB-231 breast
BT-549 breast = system: BT-549 breast
UACC-257 melanoma = system: UACC-257 melanoma
SW-620 colon = system: SW-620 colon
NCI-H522 lung = system: NCI-H522 lung
CCRF-CEM leukemia = system: CCRF-CEM leukemia
786-0 renal = system: 786-0 renal
RPMI-8226 leukemia = system: RPMI-8226 leukemia
CAKI-1 renal = system: CAKI-1 renal
HS 578T breast = system: HS 578T breast

Structure (SMILES)	TGI (SN12C renal)	TGI (LOX IMVI melanoma)	TGI (TK-10 renal)	TGI (NCI-H226 lung)	TGI (M14 melanoma)	TGI (MDA-MB-231 breast)	TGI (BT-549 breast)	TGI (UACC-257 melanoma)	TGI (SW-620 colon)	TGI (NCI-H522 lung)	TGI (CCRF-CEM leukemia)	TGI (786-0 renal)	TGI (RPMI-8226 leukemia)	TGI (CAKI-1 renal)	TGI (HS 578T breast)
Nc1nc2c(ncn2Cc2ccc(CO)cc2)c(=O)[nH]1	> 100 µM	> 100 µM	> 100 µM	> 100 µM	> 100 µM	> 100 µM	> 100 µM	> 100 µM	> 100 µM	> 100 µM	> 100 µM	> 100 µM	> 100 µM	> 100 µM	> 100 µM
Cc1ccc(C(=O)N/N=C(\N=Nc2ccccc2[N+](=O)[O-])c2ccc(N(C)C)cc2)cc1	> 100 µM	> 100 µM	> 100 µM	> 100 µM	> 100 µM	> 100 µM	> 100 µM	> 100 µM	> 100 µM	> 100 µM	> 100 µM	> 100 µM	> 100 µM	> 100 µM	> 100 µM
CCO/C=N/NC(=O)CSc1nc2ccc(I)cc2c(=O)n1Cc1ccccc1	> 100 µM	> 100 µM	> 100 µM	> 100 µM	> 100 µM	> 100 µM	> 100 µM	> 100 µM	> 100 µM	13.3 µM	> 100 µM	> 100 µM	> 100 µM	> 100 µM	> 100 µM
CC1(C)OC(=C(C#N)C#N)C(C#N)=C1/C=C/c1ccncc1	5.75 µM	3.51 µM	4.12 µM	4.65 µM	6.56 µM	4.36 µM	3.18 µM	8.27 µM	4.41 µM	4.12 µM	2.4 µM	3.66 µM	4.21 µM	3.64 µM	17.9 µM
COc1ccc(-c2c(C#N)c(O)n(NS(=O)(=O)c3ccc(C)cc3)c(=O)c2C#N)cc1	> 100 µM	> 100 µM	> 100 µM	> 100 µM	> 100 µM	> 100 µM	> 100 µM	> 100 µM	> 100 µM	> 100 µM	> 100 µM	> 100 µM	54.3 µM	> 100 µM	> 100 µM
CC(=O)Nc1ccc(-c2nc3cc(Cl)ccc3o2)cc1	> 50 µM	> 50 µM	> 50 µM	> 50 µM	> 50 µM	> 50 µM	> 50 µM	> 50 µM	> 50 µM	> 50 µM	> 50 µM	> 50 µM	> 50 µM	> 50 µM	> 50 µM
CC(C)C[C@H]1[C@@H](OCc2ccccc2)COS(=O)N1[C@H](C)c1ccccc1 (stereo not given in full)	40.1 µM	28.2 µM	> 100 µM	36 µM	29.5 µM	65.2 µM	> 100 µM	> 100 µM	> 100 µM	30.4 µM	36.4 µM	36.1 µM	58.4 µM	95.6 µM	38.6 µM
CC(C)(C)c1cc(C(CO)OCCOCCO)cc(C(C)(C)C)c1O (stereo not given)	> 100 µM	> 100 µM	> 100 µM	> 100 µM	> 100 µM	> 100 µM	> 100 µM	> 100 µM	> 100 µM	> 100 µM	> 100 µM	> 100 µM	> 100 µM	> 100 µM	> 100 µM
CCCCCC(/C=C/C1CCC(=O)C1CC#C[Si](C)(C)C)OCc1ccccc1 (stereo not given)	39 µM	35.8 µM	60.5 µM	> 94.7 µM	77.8 µM	54.4 µM	33.8 µM	39.6 µM	> 57 µM	28.6 µM	17.2 µM	28.3 µM	44.3 µM	36.8 µM	39.6 µM
C[C@@]12CCC3C1C=C1C(=O)c4cc(O)ccc4C(=O)[C@]1(O2)[C@@]3(C)C=O	8.85 µM	11.2 µM	21.7 µM	44.5 µM	19.9 µM	19.3 µM	8.69 µM	18.7 µM	12.9 µM	11.4 µM	4.02 µM	14.5 µM	9.01 µM	13.7 µM	75 µM
O=C(NS(=O)(=O)OCC(Cl)(Cl)Cl)SCCC(F)(F)C(F)(F)C(F)(F)C(F)(F)C(F)(F)C(F)(F)F	> 100 µM	45.6 µM	62.6 µM	70.7 µM	48.6 µM	61.9 µM	> 100 µM	> 100 µM	38.3 µM	41.8 µM	44.5 µM	> 100 µM	40.5 µM	92.7 µM	42.1 µM
S=c1[nH]n2c(COc3cccc(OCc4nnc5sc(=S)[nH]n45)c3)nnc2s1	> 100 µM	> 100 µM	> 100 µM	> 100 µM	> 100 µM	> 100 µM	> 100 µM	> 100 µM	> 100 µM	> 100 µM	> 100 µM	> 100 µM	> 100 µM	> 100 µM	> 100 µM
O=C(NCCCN(CCCCN(CCCNC(=O)C(F)(F)F)CCCc1ccccc1)CCCc1ccccc1)C(F)(F)F	5.8 µM	3.89 µM	3.79 µM	27 µM	3.25 µM	3.11 µM	7.34 µM	3.32 µM	3.93 µM	3.51 µM	18.8 µM	2.86 µM	7.97 µM	3.69 µM	4.2 µM
CN1CCN(CN2C(=O)C3C4C=CC(C3C2=O)C2C(=O)N(CN3CCN(C)CC3)C(=O)C42)CC1 (stereo not given)	> 100 µM	> 63 µM	> 100 µM	> 100 µM	> 80.6 µM	> 100 µM	> 100 µM	> 100 µM	7.58 µM	> 59.5 µM	> 100 µM	97.7 µM	51.4 µM	> 100 µM	> 100 µM
O=[N+]([O-])c1ccc(S(=O)(=O)N=Ic2ccccc2)cc1	> 100 µM	> 100 µM	> 100 µM	> 100 µM	> 100 µM	> 100 µM	> 100 µM	> 100 µM	> 100 µM	> 100 µM	> 100 µM	> 100 µM	> 100 µM	> 100 µM	> 100 µM

Source: PubChem BioAssay (NCI)
